One assay concerns the target T1, Beta-galactosidase (Bos taurus, UniProt Q58D55).
T1 sequence (Q58D55 whole entry): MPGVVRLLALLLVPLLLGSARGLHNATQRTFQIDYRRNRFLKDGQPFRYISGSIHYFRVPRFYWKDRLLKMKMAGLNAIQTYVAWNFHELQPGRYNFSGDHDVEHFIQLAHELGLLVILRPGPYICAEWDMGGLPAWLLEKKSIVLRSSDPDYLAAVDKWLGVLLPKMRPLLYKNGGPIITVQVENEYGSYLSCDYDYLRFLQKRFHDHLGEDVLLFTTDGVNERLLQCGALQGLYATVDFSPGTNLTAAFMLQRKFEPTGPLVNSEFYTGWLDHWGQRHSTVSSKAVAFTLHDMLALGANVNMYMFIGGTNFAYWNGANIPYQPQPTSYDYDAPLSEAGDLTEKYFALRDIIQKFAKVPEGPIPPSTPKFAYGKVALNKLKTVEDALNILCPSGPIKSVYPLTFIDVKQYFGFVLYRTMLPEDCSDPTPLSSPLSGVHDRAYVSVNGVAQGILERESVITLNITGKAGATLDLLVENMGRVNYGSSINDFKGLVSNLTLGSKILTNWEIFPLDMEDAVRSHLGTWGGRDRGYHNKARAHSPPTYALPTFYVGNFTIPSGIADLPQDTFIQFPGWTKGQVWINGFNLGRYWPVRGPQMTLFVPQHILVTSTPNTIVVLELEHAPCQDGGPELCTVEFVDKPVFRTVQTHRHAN
Kind of assay: Inhibitory activity against beta-galactosidase in bovine liver. The assay is classed as tissue-based.

A short description of assay [1]: Inhibitory activity against beta-glucosidase in almond. Further details: species or system Prunus dulcis.
Assay [2] is described as follows: Inhibitory activity against beta-glucosidase in almond at pH 6.8. Also on record: species or system Prunus dulcis.
Assay [3] is described as follows: Inhibitory activity against beta-glucosidase in almond at pH 5.5. Also on record: species or system Prunus dulcis.

Each structure is given as a SMILES string.

As usually defined, the IC50 is the concentration that inhibits the measured activity by half. High values mean a need for much substance, low ones inhibition by little substance. For `CCCCCCNC1CC(C)C(O)C(O)C1O` (stereo not drawn), the figures for the IC50 (against Beta-galactosidase; in assay [1]) were 3700 nM and 730 nM, respectively.
Take `CCCCCCCCCCN[C@H]1CC(C)[C@@H](O)C(O)[C@@H]1O` (stereo partly drawn): the IC50 stood at 1000 nM on Beta-galactosidase and 16600 nM in assay [1].
Usually Ki stands for a dissociation constant, usually derived from enzyme kinetics or from competition with a known ligand. A lower Ki goes with tighter binding. Turning to `CCCCCCCCCCNC1CC(C)C(O)C(O)C1O` (stereo not drawn), at Beta-galactosidase, the midpoint of inhibition, the IC50, lay at 200 nM and the Ki was 9 nM. In assay [1], this molecule showed an IC50 of 2000 nM and a Ki of 400 nM.
As to `CCCCCCCCN[C@H]1CC(C)[C@@H](O)C(O)[C@@H]1O` (stereo partly drawn), the concentration for half-maximal inhibition (IC50) on Beta-galactosidase worked out at 3700 nM; in assay [1], 14700 nM.
As to `CCCCCCCCNC1CC(C)C(O)C(O)C1O` (stereo not drawn), on Beta-galactosidase, half-maximal inhibition (IC50) was put at 700 nM and the affinity corresponds to a Ki of 110 nM. In assay [1], this molecule had an IC50 of 1500 nM and an inhibition constant (Ki) of 3200 nM.
For `CC1C[C@H](NCCCCc2ccccc2)[C@@H](O)C(O)[C@@H]1O` (stereo partly drawn), the IC50 was determined as 2400 nM at Beta-galactosidase and 10200 nM in assay [1].
On Beta-galactosidase, `CC1CC(NCCCCc2ccccc2)C(O)C(O)C1O` (stereo not drawn) displayed an IC50 of 900 nM and a Ki of 46 nM. In assay [1], this molecule returned an IC50 of 1400 nM and a Ki of 1200 nM.
Take `CCCCCCCCCCCCN[C@H]1CC(C)[C@@H](O)C(O)[C@@H]1O` (stereo partly drawn): the IC50 at Beta-galactosidase is 3000 nM; in assay [1] it was 3600 nM.
With `C[C@@H]1CC(NCCc2ccccc2)[C@@H](O)[C@@H](O)[C@@H]1O` (stereo in doubt), the IC50 against Beta-galactosidase is 5700 nM; in assay [1], 380 nM. In addition, the Ki in assay [2] was found to be 57 nM; in assay [3], 390 nM; in assay [1], 57 nM.
The molecule `C[C@@H]1CC(NCCc2ccccc2)[C@@H](O)[C@@H](O)[C@@H]1O` (stereo in doubt; 9e (D)) gave a Ki in assay [2] of 110 nM.
